The target of experiment [1] is T1, DENV protease (Dengue virus type 2, UniProt P29990).
T1 construct: The virus-encoded dengue protease comprises the amino-terminal 180 amino acids of NS3 (NS3pro) of the polyprotein
Description: biochemical. The conditions noted are these: read-out: inhibition of DENV. The protocol: (§1) Dilutions were made starting from 10 mM stock solutions in DMSO and final concentrations were measured in triplicates. The inhibitors were preincubated for 15 min with DENV protease (100 nM) in the assay buffer (50 mM Tris-HCl pH 9.0, ethylene glycol (10% v/v), and 0.0016% Brij 58). The enzymatic reaction was initiated by the addition of the FRET substrate (final concentration 50 μM) to obtain a final assay volume of 100 μL per well. The enzymatic activity was monitored for 15 min and determined as a slope of relative fluorescence units per second (RFU/s) for each concentration. The mean of the triplicates were plotted against the corresponding concentration in CDDVault to determine the IC50-values. Analogous procedures were used to determine the inhibitory potency on WNV (Kühl et al., J. Med. Chem. 2020, 63 (15): 8179-8197) and ZIKA protease (Nitsche et al., ACS Med. Chem. Lett. 2019 Feb. 14; 10 (2): 168-174). For selectivity screening of active candidates, similar biochemical assays with human serine proteases trypsin (Weigel et al., J. Med. Chem. 2015, 58 (19), 7719-7733.) and/or thrombin (Nitsche et al., J. Med. Chem. 2013, 56 (21), 8389-8403) were used.

For experiment [2], the target named is T2, WNV protease (West Nile virus, UniProt P06935).
T2 construct: a trypsin-like serine protease domain in the N-terminal region of the flaviviral NS3 proteins
Description: WNV protease assay (analogous procedure). It counts as biochemical. The protocol: as §1, with “By catalytic activity of the protease, the cleaved substrate results in increased fluorescence that can be monitored using a BMG Labtech Fluostar OPTIMA Microtiter fluorescence plate reader (excitation wavelength of 320 nm and a monitored emission wavelength of 405 nm). Dilutions” for “Dilutions”

The target in experiment [3] is human Thrombin (Homo sapiens, UniProt P00734). The experiment is described as follows: Selectivity screening, human serine protease thrombin. It counts as biochemical. The conditions noted are these: at 5 μM; read-out: inhibition of human Thrombin. The protocol:
as §1, with “By catalytic activity of the protease, the cleaved substrate results in increased fluorescence that can be monitored using a BMG Labtech Fluostar OPTIMA Microtiter fluorescence plate reader (excitation wavelength of 320 nm and a monitored emission wavelength of 405 nm). Dilutions” for “Dilutions”

Experiment [4] concerns the target T2, WNV protease. Description: WNV protease assay (analogous procedure). It counts as biochemical. The conditions noted are these: read-out: IC50 for WNNV.
Experiment [5] addresses human Trypsin (Homo sapiens, UniProt P07477). The experiment is described as follows: Selectivity screening, human serine protease trypsin. It counts as biochemical. The conditions noted are these: read-out: inhibition of human Trypsin. The protocol: as §1, with “By catalytic activity of the protease, the cleaved substrate results in increased fluorescence that can be monitored using a BMG Labtech Fluostar OPTIMA Microtiter fluorescence plate reader (excitation wavelength of 320 nm and a monitored emission wavelength of 405 nm). Dilutions” for “Dilutions”

Experiment [6] deals with T3, ZIKA protease (Zika virus, UniProt Q32ZE1).
T3 construct: a trypsin-like serine protease domain in the N-terminal region of the flaviviral NS3 proteins
Description: biochemical. The conditions noted are these: for inhibition at 50 µM / inhibition at 1 µM: read-out: inhibition of ZIKV. The protocol:
as §1, with “By catalytic activity of the protease, the cleaved substrate results in increased fluorescence that can be monitored using a BMG Labtech Fluostar OPTIMA Microtiter fluorescence plate reader (excitation wavelength of 320 nm and a monitored emission wavelength of 405 nm). Dilutions” for “Dilutions”

Each structure is given as a SMILES string. Where a SMILES comes first, the peptide text is derived from it. [ ]: non-standard residue; d: D form. The star is where a group is joined. Palmitoyl = CCCCCCCCCCCCCCCC(=O)*; NHhexadecyl = CCCCCCCCCCCCCCCCN*; Phg = N[C@H](C(=O)O)c1ccccc1; Octanoyl = CCCCCCCC(=O)*; NHOctyl = CCCCCCCCN*

The values that follow come from US20250059231A1, “Protease inhibitors” (priority 2021, published 2025).

T3 sequence (Q32ZE1 1499-1676): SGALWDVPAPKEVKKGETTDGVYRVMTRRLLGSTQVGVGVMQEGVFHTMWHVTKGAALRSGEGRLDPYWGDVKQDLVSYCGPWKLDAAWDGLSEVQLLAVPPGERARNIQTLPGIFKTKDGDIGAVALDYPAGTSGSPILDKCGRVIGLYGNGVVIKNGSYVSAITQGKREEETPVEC
T3 sequence (Q32ZE1 1421-1460): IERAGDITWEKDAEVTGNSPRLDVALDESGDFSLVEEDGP
T2 sequence (P06935 1424-1463): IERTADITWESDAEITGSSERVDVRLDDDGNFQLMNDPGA
T2 sequence (P06935 1502-1679): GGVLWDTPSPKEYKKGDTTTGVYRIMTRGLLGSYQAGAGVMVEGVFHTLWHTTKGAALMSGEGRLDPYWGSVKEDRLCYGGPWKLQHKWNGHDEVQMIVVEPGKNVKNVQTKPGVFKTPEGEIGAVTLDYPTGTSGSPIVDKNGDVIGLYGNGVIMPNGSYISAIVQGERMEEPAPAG
T1 sequence (P29990 1398-1437): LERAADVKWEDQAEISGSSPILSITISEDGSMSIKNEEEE
T1 sequence (P29990 1476-1653): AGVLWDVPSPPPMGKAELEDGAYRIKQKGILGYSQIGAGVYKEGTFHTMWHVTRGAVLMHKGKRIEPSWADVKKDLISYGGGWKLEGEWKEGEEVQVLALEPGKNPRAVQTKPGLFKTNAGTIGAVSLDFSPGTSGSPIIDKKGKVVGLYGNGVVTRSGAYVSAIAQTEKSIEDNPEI

Broadly, the inhibition is the share of the control response that was lost under treatment. As for `CCCCCCCCCCCCCCCC(=O)N[C@@H](CCCCN)C(=O)N[C@@H](C)C(=O)N[C@@H](Cc1ccccc1)C(N)=O` [compound 192] (Palmitoyl-Lys-Ala-Phe-NH2), the inhibition at 50 µM in experiment [1] and in experiment [2] was at least 25% in each case.
Compound `CCCCCCCCCCCCCCCC(=O)N[C@@H](Cc1c[nH]c2ccccc12)C(=O)N[C@@H](C)C(=O)N[C@@H](C)C(=O)N[C@@H](Cc1c[nH]c2ccccc12)C(N)=O` [compound 191] (Palmitoyl-WAAW-NH2) gave an inhibition at 50 µM in experiment [2] of at least 25%.
What is called IC50 is the midpoint of a concentration-inhibition curve. As to `CCCCCCCCCCCCCCCC(=O)N[C@@H](CCCCN)C(=O)N[C@@H](C)C(=O)N[C@@H](C)C(=O)N[C@H](C=O)CCCCN` [compound 180] (Palmitoyl-KAAK-aldehyde), the inhibition at 50 µM in experiment [1] and in experiment [2] was at least 25% each time. Besides, the inhibition at 5 µM in experiment [3] is under 5%. For the same compound, the IC50 in experiment [4] was at most 40 µM.
As for `CCCCCCCCCCCCCCCC(=O)N[C@@H](CCCNC(=N)N)C(=O)N[C@@H](CCC(N)=O)C(=O)N[C@@H](CCCCN)B(O)O` [compound 41], in experiment [1], the inhibition at 1 µM was at least 20% and the inhibition at 50 µM was at least 25%. In experiment [4], the IC50 is at most 40 µM.
Consider `CCCCCCCCCCCCCCCC(=O)N[C@@H](CCCCN)C(=O)N1CCC[C@H]1C(=O)N[C@H](C(=O)N[C@@H](CCCCN)C(N)=O)c1ccccc1` [compound 13] (Palmitoyl-KP[Phg]K-NH2), for which the inhibition at 5 µM in experiment [5] (at 5 μM) is under 10%; in experiment [3], under 5%. In experiment [5] (at 25 μM), the inhibition at 25 µM was under 20%. The inhibition at 50 µM in experiment [1] and in experiment [2] was at least 25% throughout. Moreover, the IC50 in experiment [4] was at most 40 µM.
As to `CCCCCCCCCCCCCCCC(=O)N[C@@H](CCCCN)C(=O)N[C@@H](C)C(=O)N[C@@H](CCCCN)C(=O)C(N)=O` [compound 176], the values for the inhibition at 50 µM in experiment [1], in experiment [2] and in experiment [6] were at least 25%, at least 25% and at least 65%, respectively. In experiment [3], the inhibition at 5 µM is under 5%. Moreover, the IC50 in experiment [4] is at most 40 µM; in experiment [6] it was at most 25 µM.
For the compound `CCCCCCCCCCCCCCCC(=O)N[C@@H](CCCCN)C(=O)N[C@@H](C)C(=O)N[C@@H](CCCCN)C(=O)N(C)C` [compound 184] (Palmitoyl-Lys-Ala-Lys-NMe2), the inhibition at 50 µM in experiment [1] and in experiment [2] was at least 25% each time.
With `CCCCCCCCCCCCCCCC(=O)N[C@@H](C)C(=O)N[C@@H](CCCNC(=N)N)C(=O)N[C@@H](CCC(N)=O)C(=O)N[C@@H](CCCCN)B(O)O` [compound 39], the inhibition at 1 µM in experiment [1] is at least 20%; in experiment [6], at least 10%. The inhibition at 50 µM is at least 25% in experiment [1] and at least 65% in experiment [6]. Further, the IC50 in experiment [4] is at most 40 µM; in experiment [6] it was at most 25 µM.
Consider `CCCCCCCCCCCCCCCC(=O)N[C@@H](CCCCN)C(=O)N1CCC[C@H]1C(=O)N[C@@H](C)C(=O)N[C@@H](CCCCN)C(N)=O` [compound 156] (Palmitoyl-KPAK-NH2), for which the inhibition at 50 µM in experiment [1] was at least 25%. Also, the IC50 in experiment [4] was at most 40 µM.
`CCCCCCCCCCCCCCCC(=O)N[C@H](CCCCN)C(=O)N[C@@H](C)C(=O)N[C@@H](C)C(=O)N[C@@H](Cc1ccccc1)C(N)=O` [compound 193] (Palmitoyl-[dK]AAF-NH2): the inhibition at 50 µM in experiment [1] and in experiment [2] was at least 25% in each case. Moreover, the IC50 in experiment [4] is at most 40 µM.
On to `CCCCCCCCCCCCCCCC(=O)N[C@@H](CCCCN)C(=O)N[C@@H](C)C(=O)N[C@@H](C)C(=O)N[C@@H](CCCCN)C(O)O` [compound 183], for which the inhibition at 50 µM in experiment [1] and in experiment [2] was at least 25% in each case. Further, the IC50 in experiment [4] is at most 40 µM.
`CCCCCCCCCCCCCCCC(=O)N[C@@H](CCCCN)C(=O)N[C@@H](C)C(=O)N[C@@H](CCCCN)B(O)O` [compound 182]: the inhibition at 50 µM in experiment [1] and in experiment [2] was at least 25% throughout. Besides, the IC50 in experiment [4] is at most 40 µM.
As to `CC(=O)N[C@@H](C)C(=O)N[C@@H](CCCNC(=N)N)C(=O)N[C@@H](CCC(N)=O)C(=O)N[C@@H](CCCCN)B(O)O` [compound 48], the inhibition at 1 µM in experiment [1] was at least 20%; in experiment [6], at least 10%. Moreover, the inhibition at 50 µM in experiment [1] was at least 25%; in experiment [2] it was at least 25%; in experiment [6] it was at least 65%. In addition, the IC50 in experiment [4] is at most 40 µM; in experiment [6], at most 25 µM.
With `CCCCCCCCCCCCCCCC(=O)N[C@@H](CCCCN)C(=O)N[C@H](C)C(=O)N[C@@H](CCCCN)C(N)=O` [compound 146] (Palmitoyl-Lys-[dA]-Lys-NH2), the inhibition at 50 µM in experiment [1] was at least 25%.
`CCCCCCCCCCCCCCCC(=O)N[C@@H](CCCCN)C(=O)N[C@@H](C)C(=O)N[C@@H](C)C(=O)N[C@@H](CCc1c[nH]cn1)C(N)=O` [compound 172]: in experiment [1], the inhibition at 1 µM is at least 20% and the inhibition at 50 µM was at least 25%.
As to `CCCCCCCCCCCCCCCC(=O)N[C@@H](C)C(=O)N[C@@H](CCCCN)C(=O)N[C@@H](C)C(=O)N[C@H](C)C(N)=O` [compound 148] (Palmitoyl-AKA[dA]-NH2), in experiment [1], the inhibition at 1 µM was at least 20% and the inhibition at 50 µM is at least 25%.
On to `CCCCCCCCCCCCCCCC(=O)N[C@@H](CCCCN)C(=O)N[C@@H](C)C(=O)N[C@@H](CCCCN)C(=O)N(C)OC` [compound 185], for which the inhibition at 50 µM in experiment [1] and in experiment [2] was at least 25% each time.
Take `CCCCCCCCCCCCCCCCNC(=O)[C@H](CCCCN)NC(=O)[C@H](CCC(N)=O)NC(=O)[C@H](CCCNC(=N)N)NC(=O)[C@H](C)N` [compound 32] (H-ARQK-NHhexadecyl): in experiment [1], the inhibition at 50 µM was at least 25%.
Consider `CCCCCCCCCCCCCCCC(=O)N[C@@H](CCCCN)C(=O)N[C@@H](C)C(=O)N[C@H](C=O)CCCCN` [compound 186] (Palmitoyl-Lys-Ala-Lys-aldehyde), for which the inhibition at 50 µM in experiment [1] and in experiment [2] was at least 25% each time. In addition, the inhibition at 1 µM in experiment [2] (at 1 μM, read-out: inhibition of WNNV) was at least 10%. The inhibition at 5 µM in experiment [3] was under 5%. Further, in experiment [4], the IC50 was at most 40 µM.
Turning to `CCCCCCCCCCCCCCCC(=O)N[C@@H](CCc1ccncc1)C(=O)N[C@@H](CCC(N)=O)C(=O)N[C@@H](Cc1ccccc1)C(N)=O` [compound 57], in experiment [1], the inhibition at 50 µM was at least 25%.
On to `CCCCCCCCNC(=O)[C@H](CCCCN)NC(=O)[C@H](CCCCN)NC(=O)[C@H](CCCCN)NC(=O)[C@H](CC(C)C)NC(=O)CCCCCCC` [compound 19] (Octanoyl-LKKK-NHOctyl), for which the inhibition at 50 µM in experiment [1] was at least 25%.
As for `CCCCCCCCCCCCCCCC(=O)N[C@@H](CCCCN)C(=O)N[C@@H](C)C(=O)N[C@@H](Cc1cnc[nH]1)C(N)=O` [compound 167] (Palmitoyl-Lys-Ala-His-NH2), the inhibition at 1 µM in experiment [1] was at least 20%; in experiment [6], at least 10%. In addition, the inhibition at 50 µM is at least 25% in experiment [2] and at least 65% in experiment [6]. Moreover, in experiment [3], the inhibition at 5 µM is under 5%. Also, the results for the IC50 in experiment [4] and in experiment [6] were at most 40 µM and at most 25 µM, respectively.
`CC(=O)N[C@@H](C)C(=O)N[C@@H](CCCNC(=N)N)C(=O)N[C@@H](CCC(N)=O)C(=O)N[C@@H](Cc1ccccc1)B(O)O` [compound 61]: the inhibition at 50 µM in experiment [1] is at least 25%.
Take `CCCCCCCCCCCCCCCC(=O)N[C@@H](CCCCN)C(=O)N[C@@H](C)C(=O)N[C@@H](C)C(=O)N[C@H](CCCCN)C(=O)O` [compound 134] (Palmitoyl-KAA[dK]-OH): the inhibition at 50 µM in experiment [1] was at least 25%.
